# Source: US5789422A, “Substituted arylalkylamines as neurokinin antagonists” (Schering Corporation, priority 1996, dated 1998)
# Tests used:
# [1] = target: T1, human neurokinin 2 (NK2) receptor (Homo sapiens, UniProt P21452); assay: Neurokinin receptor binding assay, human NK2; conditions: CHO cell membranes, [3H]-Neurokinin A, read-out: % Inhibition of NK2 at a dose of 1 μM
# T1 construct: expressed in transfected cells; host or cells: CHO (Chinese hamster ovary) cells, membranes
# T1 sequence (P21452 1-398): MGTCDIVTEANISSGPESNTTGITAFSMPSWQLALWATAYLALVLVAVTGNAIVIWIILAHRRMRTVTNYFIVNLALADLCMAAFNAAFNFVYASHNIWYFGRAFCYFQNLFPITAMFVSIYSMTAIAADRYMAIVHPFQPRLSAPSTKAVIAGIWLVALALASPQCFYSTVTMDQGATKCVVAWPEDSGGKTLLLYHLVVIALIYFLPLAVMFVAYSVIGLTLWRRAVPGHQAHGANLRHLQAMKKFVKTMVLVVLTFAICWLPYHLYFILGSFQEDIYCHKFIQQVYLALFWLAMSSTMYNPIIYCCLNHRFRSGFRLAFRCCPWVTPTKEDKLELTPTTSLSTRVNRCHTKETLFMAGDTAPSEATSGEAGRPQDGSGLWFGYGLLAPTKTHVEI
# Procedure: (§1) Chinese Hamster ovary (CHO) cells transfected with the coding regions for the human neurokinin 1 (NK1) of the human neurokinin 2 (NK2) receptors are grown in Dulbecco's minimal essential medium supplemented with 10% fetal calf serum, 0.1 mM non-essential amino acids, 2 mM glutamine, 100 units/ml of penicillin and streptomycin, and 0.8 mg of G418/ml at 37° C. in a humidified atmosphere containing 5% CO2.
# (§2) Cells are detached from T-175 flasks with a sterile solution containing 5 mM EDTA in phosphate buffered saline. Cells are harvested by centrifugation and washed in RPMI media at […] for 5 minutes. The pellet is resuspended in Tris-HCl (pH7.4) containing 1 uM phsphoramidon and 4 ug/ml of chymostatin at a cell density of 30×10^6 cells/ml. The suspension is then homogenized in a Brinkman Polytron (setting 5) for 30-45 seconds. The homogenate is centrifuged at 800 x g for 5 min at 4° C. to collect unbroken cells and nuclei. The supernatant is centrifuged in a Sorvall RC5C at 19,000 rpm ([…]) for 30 min at 4° C. The pellet is resuspended, an aliquot is removed for a protein determination (BCA) and washed again. The resulting pellet is stored at -80° C.
# (§3) To assay receptor binding, 50 μl of [^3 H]-Substance P (9-Sar, 11-Met) (specific activity 41 Ci/mmol) (Dupont-NEN) (0.8 nM for the NK-1 assay) or [^3 H]-Neurokinin A (specific activity 114 Ci/ mmole) (Zenca) (1.0 nM for the NK-2 assay) is added to tubes containing buffer (50 mM Tris-HCl (pH 7.4) with 1 mM MnCl2 and 0.2% Bovine Serum Albumin) and either DMSO or test compound. Binding is initiated by the addition of 100 μl of membrane (10-20 μg) containing the human NK-1 or NK-2 receptor in a final volume of 200 μl. After 40 minutes at room temperature, the reaction is stopped by rapid filtration onto Whatman GF/C filters which have been presoaked in 0.3% polyethylenimine. Filters are washed 2 times with 3 ml of 50 mM Tris-HCl (pH7.4). Filters are added to 6 mls of Ready-Safe liquid scintillation cocktail and quantified by liquid scintillation spectrometry in a LKB 1219 RackBeta counter. Non-specific binding is determined by the addition of either 1 μM of CP-99994 (NK-1) or 1 μM SR-48968 (NK-2) (both synthesized by the chemistry department of Schering-Plough Research Institute). IC50 values are determined from competition binding curves and Ki values are determined according to Cheng and Prusoff using the experimentally determined value of 0.8 nM for the NK-1 receptor and 2.4 nM for the NK-2 receptor.
# (§4) % Inhibition is the difference between the percent of maximum specific binding (MSB) and 100%. The percent of MSB is defined by the following equation, wherein "dpm" is disintegrations per minute: [formula]
# [2] = target: T2, human neurokinin 1 (NK1) receptor (Homo sapiens, UniProt P25103); assay: Neurokinin receptor binding assay, human NK1; conditions: CHO cell membranes, [3H]-Substance P, read-out: % Inhibition of NK1 at a dose of 1 μM
# T2 construct: expressed in transfected cells; host or cells: CHO (Chinese hamster ovary) cells, membranes
# T2 sequence (P25103 whole entry): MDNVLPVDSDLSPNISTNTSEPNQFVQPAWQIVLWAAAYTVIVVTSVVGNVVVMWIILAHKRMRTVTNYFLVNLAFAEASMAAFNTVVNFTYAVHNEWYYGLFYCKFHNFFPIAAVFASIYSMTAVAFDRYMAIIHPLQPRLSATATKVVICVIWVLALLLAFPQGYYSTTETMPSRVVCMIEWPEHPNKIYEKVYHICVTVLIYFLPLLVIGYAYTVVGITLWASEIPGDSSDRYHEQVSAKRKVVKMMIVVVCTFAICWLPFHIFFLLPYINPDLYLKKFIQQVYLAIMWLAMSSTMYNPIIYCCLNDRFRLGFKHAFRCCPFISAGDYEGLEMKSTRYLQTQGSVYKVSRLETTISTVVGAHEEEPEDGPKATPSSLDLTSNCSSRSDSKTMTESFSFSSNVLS
# Procedure: as §1, §2, §3, §4
compound,measurement,setting,value
CN(C[C@H](c1ccc(Cl)c(Cl)c1)[C@@H](O)CN1CCC(O)(c2ccccc2)CC1)C(=O)c1ccccc1 (relative stereo) [Example 2],inhibition at 1 µM,[1],88%
same,inhibition at 1 µM,[2],81%
CN(C[C@H](c1ccc(Cl)c(Cl)c1)[C@@H](CN1CCC(O)(c2ccccc2)CC1)OCc1cc(C(F)(F)F)cc(C(F)(F)F)c1)C(=O)c1ccccc1 (relative stereo) [Example 19],inhibition at 1 µM,[1],18%
same,inhibition at 1 µM,[2],78%
COC(CN1CCC(O)(c2ccccc2)CC1)C(CNC(=O)OC(C)(C)C)c1ccc(Cl)c(Cl)c1 (stereo not shown) [Example 12],inhibition at 1 µM,[1],68%
same,inhibition at 1 µM,[2],9%
CN(CC(C(=O)CN1CCC(O)(c2ccccc2)CC1)c1ccc(Cl)c(Cl)c1)C(=O)c1ccccc1 (stereo not shown) [Example 16],inhibition at 1 µM,[1],96%
same,inhibition at 1 µM,[2],23%
CON=C(CN1CCC(O)(c2ccccc2)CC1)C(CN(C)C(=O)c1ccccc1)c1ccc(Cl)c(Cl)c1 (stereo not shown) [Example 18],inhibition at 1 µM,[1],15%
same,inhibition at 1 µM,[2],1%
